From patent US8604207B2, “Nitrogenous heterocyclic derivative and medicine containing the same as an active ingredient” (Ono Pharmaceutical Co., Ltd., priority 2004, dated 2013)
Where a name gives a salt, the structure may show the parent alone.

Experiments:
[1] = Stability test in liver microsome of monkey; conditions: liver microsome of monkey 1 mg/mL, test compound 5 μmol/L, 30 minutes at 37° C.
[2] = test system: human cultured PBMC; assay: Cell migration test (in vitro, human MIP-1β-induced migration of human cultured PBMC); type: cell-based; conditions: human MIP-1β in lower well, incubated 1.5 hours, average value (n=3), read-out: IC50 value, inhibitory activity against human MIP-1β-induced cell migration of human cultured PBMC
Experimental: Preparation of PBMC (Peripheral Blood Mononuclear Cell)
Human venous blood (50 mL) collected by using syringe with heparin sodium (final concentration: 10 U/mL, heparin sodium injection 1000 U/mL, Shimizu Pharmaceutical Co., Ltd.) was stored into 50 mL of conical tube made by polypropylene. To a Lymphoprep tube (HYCOMED PHARMA, Cat. No 1019818), 16.5 mL of DPBS (−) (GIBCO, Cat No. 14190-136) and a blood sample were added, jiggled several times, then centrifuged at 3000 rpm for 10 minutes at room temperature. […]
50 μL of 5×10^5 cells of the human PBMC suspension (culture medium) and 50 μL of the solution of the test compound (0-2 μmol/L: double concentration of a final concentration) were added to an upper well of transwell (coster), and 300 μL of 60 nmol/L of the human MIP-1β (Pepro tech, Cat. No. 300-09) and 300 μL of a double concentration of the solution of the test compound were added to a lower well. […] 100 μL of the solution was transferred to white 96 well plate for fluorescence from lower well by pipetting, an amount of cells was measured by using Celltiter Glo (Promega) (a measurement of ATP), Cell migration inhibition ratio was calculated by the following calculating formula. The value of IC50 was calculated from cell migration inhibition ratio of each concentration. […]

Row | Compound | residual ratio of the unmetabolite [1] [%] | IC50 [2] [nM]
1 | CC(=O)Nc1cc(NC(=O)N(c2ccccc2)C2CCN(Cc3ccc(Oc4ccc(NS(C)(=O)=O)cc4)nc3)CC2)ccc1F [Example 7(83), N-[2-fluoro-5-({[{1-[(6-{4-[(methylsulfonyl)amino]phenoxy}-3-pyridinyl)methyl]-4-piperidinyl}(phenyl)amino]carbonyl}amino)phenyl]acetamide hydrochloride (or dihydrochloride)] | 88 | –
2 | CS(=O)(=O)Nc1ccc(Oc2ccc(CN3CCC(N(C(=O)Nc4ccc(F)cc4)c4ccsc4)CC3)cn2)cc1 [Example 7(29), N-(4-{[5-({4-[{[(4-fluorophenyl)amino]carbonyl}(3-thienyl)amino]-1-piperidinyl}methyl)-2-pyridinyl]oxy}phenyl)methanesulfonamide hydrochloride (or dihydrochloride)] | – | 1.2
